Each block holds one compound with its values, some of them ahead of it.
Columns and labels:
Format in all cases: biochemical
[1] = target: CDK1 (Homo sapiens, UniProt P06493); experiment: General kinase assay, selectivity panel: CDK1; details: 10 μM of compound, in comparison to DMSO (0% inhibition)
Experimental: (§1) The inhibitory effect of compounds according to the present invention on the activity of protein kinases, depicted in Table 1, can be measured according to the following protocol:
(§2) Pipettinq Sequence: • 1) Add 10 μl 4 fold concentrated Substrate+4 fold concentrated ATP in 3 fold concentrated Reaction Buffer to each well of Assay Plate • 2) Add 10 μl 4 fold concentrated inhibitor in 4% DMSO in H2O to each well except to C− and C+ wells • 3) Add 10 μl 4% DMSO in H2O to C− and C+ wells • 4) Add 10 μl 500 mM EDTA in H2O to − wells • 5) Add 10 μl 50 μCi/ml Adenosine 5′-[γ-^33P]triphosphate in H2O to each well • 6) Add 10 μl 4 fold concentrated kinase in Reaction Buffer to each well • 7) Incubate 1 hr at room temperature • 8) Add 10 μl 50 mM EDTA in H2O to each well except to C− wells • 9) Prepare MAPH plates by adding 200 μl 0.75% H3PO4 to each well • 10) Exhaust 0.75% H3PO4 using Millipore vacuum station • 11) Add 60 μl 0.75% H3PO4 to each well of MAPH Filter Plate • 12) Transfer 30 μl sample per well from Assay Plate to corresponding well of MAPH Filter Plate • 13) Incubate 30 min at room temperature • 14) Wash each well of MAPH Filter Plates 3× with 200 μl 0.75% H3PO4 using Millipore vacuum station. • 15) Add 20 μl Scintillation Liquid to each well of MAPH Filter Plate • 16) Seal MAPH Filter Plate • 17) Store MAPH Filter Plate 30 min in darkness • 18) Quantify radioactivity
(§3) The activity of these protein kinases is depicted as % inhibition in the presence of 10 μM of compound in comparison to DMSO (0% inhibition).

[2] = target: EGFR (Homo sapiens, UniProt P00533); experiment: General kinase assay, selectivity panel: EGFR; details: 10 μM of compound, in comparison to DMSO (0% inhibition)
Experimental: as §1, §2, §3

[3] = target: GSK-3β (Homo sapiens, UniProt P49841); experiment: General kinase assay, selectivity panel: GSK-3β; details: 10 μM of compound, in comparison to DMSO (0% inhibition)
Experimental: as §1, §2, §3

[4] = target: c-Kit (Homo sapiens, UniProt P10721); experiment: General kinase assay, selectivity panel: c-Kit; details: 10 μM of compound, in comparison to DMSO (0% inhibition)
Experimental: as §1, §2, §3

[5] = tested on: PDGFR; experiment: General kinase assay, selectivity panel: PDGFR; details: 10 μM of compound, in comparison to DMSO (0% inhibition)
Experimental: as §1, §2, §3

[6] = target: Abl (Homo sapiens, UniProt P00519); experiment: General kinase assay, selectivity panel: Abl; details: 10 μM of compound, in comparison to DMSO (0% inhibition)
Experimental: as §1, §2, §3

[7] = target: p56 Lck (Homo sapiens, UniProt P06239); experiment: General kinase assay, selectivity panel: p56 Lck; details: 10 μM of compound, in comparison to DMSO (0% inhibition)
Experimental: as §1, §2, §3

[8] = target: CDK4 (Homo sapiens, UniProt P11802); experiment: CDK4 (activity range), Table 2; no method described

Chain of EGFR (P00533 25-1210, species assumed): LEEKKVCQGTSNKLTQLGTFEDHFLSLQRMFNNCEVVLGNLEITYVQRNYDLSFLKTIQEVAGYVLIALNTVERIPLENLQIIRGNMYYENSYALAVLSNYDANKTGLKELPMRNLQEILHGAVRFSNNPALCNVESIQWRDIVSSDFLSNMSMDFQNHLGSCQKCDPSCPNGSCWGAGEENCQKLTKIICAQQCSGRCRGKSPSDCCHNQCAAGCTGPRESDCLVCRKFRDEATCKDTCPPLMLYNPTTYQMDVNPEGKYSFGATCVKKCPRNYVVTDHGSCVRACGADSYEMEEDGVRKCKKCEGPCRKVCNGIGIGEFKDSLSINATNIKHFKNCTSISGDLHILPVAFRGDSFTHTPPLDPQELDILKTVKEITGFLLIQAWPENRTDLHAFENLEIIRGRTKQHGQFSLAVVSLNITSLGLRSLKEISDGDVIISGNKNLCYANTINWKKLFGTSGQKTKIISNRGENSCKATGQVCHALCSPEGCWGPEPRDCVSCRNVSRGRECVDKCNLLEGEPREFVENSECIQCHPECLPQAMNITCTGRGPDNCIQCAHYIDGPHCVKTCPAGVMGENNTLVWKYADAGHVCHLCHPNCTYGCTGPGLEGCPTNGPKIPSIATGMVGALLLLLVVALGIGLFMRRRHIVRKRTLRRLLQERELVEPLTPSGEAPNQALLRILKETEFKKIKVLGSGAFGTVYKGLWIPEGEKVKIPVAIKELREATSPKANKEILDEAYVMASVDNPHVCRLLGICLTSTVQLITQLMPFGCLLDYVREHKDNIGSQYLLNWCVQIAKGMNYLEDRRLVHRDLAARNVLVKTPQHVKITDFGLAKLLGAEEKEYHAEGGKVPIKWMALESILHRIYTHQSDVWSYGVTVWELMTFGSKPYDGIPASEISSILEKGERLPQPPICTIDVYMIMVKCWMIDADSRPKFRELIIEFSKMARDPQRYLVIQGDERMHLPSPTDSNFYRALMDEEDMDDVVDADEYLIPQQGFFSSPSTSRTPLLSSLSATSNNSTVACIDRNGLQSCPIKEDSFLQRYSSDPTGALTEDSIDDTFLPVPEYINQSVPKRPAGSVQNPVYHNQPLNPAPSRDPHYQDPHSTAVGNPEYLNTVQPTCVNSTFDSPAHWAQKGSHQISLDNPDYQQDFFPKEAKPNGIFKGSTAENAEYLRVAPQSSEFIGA
Chain of p56 Lck (P06239 whole entry): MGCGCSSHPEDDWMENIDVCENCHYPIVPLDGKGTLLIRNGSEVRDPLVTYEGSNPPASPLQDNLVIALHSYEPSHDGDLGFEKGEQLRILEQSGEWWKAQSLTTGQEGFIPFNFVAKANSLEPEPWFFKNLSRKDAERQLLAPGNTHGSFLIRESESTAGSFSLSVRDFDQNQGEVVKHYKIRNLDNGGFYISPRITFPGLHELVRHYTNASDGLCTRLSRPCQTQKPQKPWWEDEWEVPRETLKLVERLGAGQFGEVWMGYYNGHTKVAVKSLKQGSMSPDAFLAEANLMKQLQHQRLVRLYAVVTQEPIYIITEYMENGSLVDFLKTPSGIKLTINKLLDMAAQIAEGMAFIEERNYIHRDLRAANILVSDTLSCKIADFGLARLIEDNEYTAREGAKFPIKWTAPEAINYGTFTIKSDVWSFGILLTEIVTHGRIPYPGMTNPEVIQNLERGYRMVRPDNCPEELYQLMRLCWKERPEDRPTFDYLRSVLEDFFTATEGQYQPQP
Chain of Abl (P00519 whole entry, species assumed): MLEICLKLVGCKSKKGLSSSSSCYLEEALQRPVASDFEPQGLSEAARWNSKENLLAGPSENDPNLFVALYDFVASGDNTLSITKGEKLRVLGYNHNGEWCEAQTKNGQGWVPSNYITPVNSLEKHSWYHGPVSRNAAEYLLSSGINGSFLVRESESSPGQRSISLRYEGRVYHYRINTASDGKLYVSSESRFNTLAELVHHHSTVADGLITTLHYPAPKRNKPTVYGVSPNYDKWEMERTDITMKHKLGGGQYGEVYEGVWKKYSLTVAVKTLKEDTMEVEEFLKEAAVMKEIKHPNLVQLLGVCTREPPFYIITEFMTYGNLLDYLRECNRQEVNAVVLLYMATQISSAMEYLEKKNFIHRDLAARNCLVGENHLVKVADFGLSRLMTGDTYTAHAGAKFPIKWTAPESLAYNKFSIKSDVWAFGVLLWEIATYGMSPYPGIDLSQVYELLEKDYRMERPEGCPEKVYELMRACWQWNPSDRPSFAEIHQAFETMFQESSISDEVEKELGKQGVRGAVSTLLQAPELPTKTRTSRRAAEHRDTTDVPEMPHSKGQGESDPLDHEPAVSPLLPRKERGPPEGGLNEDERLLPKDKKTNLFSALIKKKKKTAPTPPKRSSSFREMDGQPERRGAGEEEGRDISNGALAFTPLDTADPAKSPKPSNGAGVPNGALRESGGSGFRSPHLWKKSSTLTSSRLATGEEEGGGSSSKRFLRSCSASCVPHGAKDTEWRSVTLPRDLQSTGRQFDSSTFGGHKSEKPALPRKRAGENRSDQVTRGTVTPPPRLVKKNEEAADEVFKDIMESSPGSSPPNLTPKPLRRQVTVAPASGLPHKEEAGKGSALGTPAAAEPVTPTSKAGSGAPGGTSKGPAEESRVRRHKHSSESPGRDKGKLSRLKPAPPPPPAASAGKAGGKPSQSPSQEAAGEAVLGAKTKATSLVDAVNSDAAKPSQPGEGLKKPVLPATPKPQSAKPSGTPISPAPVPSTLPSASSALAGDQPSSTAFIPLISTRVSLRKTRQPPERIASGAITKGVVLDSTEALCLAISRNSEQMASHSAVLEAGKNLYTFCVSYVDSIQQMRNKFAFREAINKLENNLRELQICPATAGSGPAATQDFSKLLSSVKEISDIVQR
Chain of CDK1 (P06493 whole entry, species assumed): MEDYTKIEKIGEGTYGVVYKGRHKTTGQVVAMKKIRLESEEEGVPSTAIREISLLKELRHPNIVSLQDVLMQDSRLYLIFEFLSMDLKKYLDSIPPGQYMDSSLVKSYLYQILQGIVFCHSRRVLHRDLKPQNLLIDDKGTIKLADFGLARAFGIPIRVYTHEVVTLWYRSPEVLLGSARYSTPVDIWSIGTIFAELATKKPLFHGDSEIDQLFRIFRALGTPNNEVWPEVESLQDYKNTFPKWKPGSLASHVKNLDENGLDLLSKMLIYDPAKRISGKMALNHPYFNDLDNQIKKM
Chain of CDK1 (P14635 whole entry partner, species assumed): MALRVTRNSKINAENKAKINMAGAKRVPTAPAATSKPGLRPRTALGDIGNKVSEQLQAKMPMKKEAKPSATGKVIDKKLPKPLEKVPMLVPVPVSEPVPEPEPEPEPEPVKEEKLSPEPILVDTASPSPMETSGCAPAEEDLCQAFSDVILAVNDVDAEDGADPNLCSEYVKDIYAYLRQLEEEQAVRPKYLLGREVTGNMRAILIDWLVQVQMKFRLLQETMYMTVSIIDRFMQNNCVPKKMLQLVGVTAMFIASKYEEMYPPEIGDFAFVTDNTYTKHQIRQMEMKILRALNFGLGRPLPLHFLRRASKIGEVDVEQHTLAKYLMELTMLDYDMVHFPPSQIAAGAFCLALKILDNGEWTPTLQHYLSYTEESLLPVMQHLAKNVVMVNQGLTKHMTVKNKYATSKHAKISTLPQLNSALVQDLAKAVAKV
Chain of c-Kit (P10721 26-976): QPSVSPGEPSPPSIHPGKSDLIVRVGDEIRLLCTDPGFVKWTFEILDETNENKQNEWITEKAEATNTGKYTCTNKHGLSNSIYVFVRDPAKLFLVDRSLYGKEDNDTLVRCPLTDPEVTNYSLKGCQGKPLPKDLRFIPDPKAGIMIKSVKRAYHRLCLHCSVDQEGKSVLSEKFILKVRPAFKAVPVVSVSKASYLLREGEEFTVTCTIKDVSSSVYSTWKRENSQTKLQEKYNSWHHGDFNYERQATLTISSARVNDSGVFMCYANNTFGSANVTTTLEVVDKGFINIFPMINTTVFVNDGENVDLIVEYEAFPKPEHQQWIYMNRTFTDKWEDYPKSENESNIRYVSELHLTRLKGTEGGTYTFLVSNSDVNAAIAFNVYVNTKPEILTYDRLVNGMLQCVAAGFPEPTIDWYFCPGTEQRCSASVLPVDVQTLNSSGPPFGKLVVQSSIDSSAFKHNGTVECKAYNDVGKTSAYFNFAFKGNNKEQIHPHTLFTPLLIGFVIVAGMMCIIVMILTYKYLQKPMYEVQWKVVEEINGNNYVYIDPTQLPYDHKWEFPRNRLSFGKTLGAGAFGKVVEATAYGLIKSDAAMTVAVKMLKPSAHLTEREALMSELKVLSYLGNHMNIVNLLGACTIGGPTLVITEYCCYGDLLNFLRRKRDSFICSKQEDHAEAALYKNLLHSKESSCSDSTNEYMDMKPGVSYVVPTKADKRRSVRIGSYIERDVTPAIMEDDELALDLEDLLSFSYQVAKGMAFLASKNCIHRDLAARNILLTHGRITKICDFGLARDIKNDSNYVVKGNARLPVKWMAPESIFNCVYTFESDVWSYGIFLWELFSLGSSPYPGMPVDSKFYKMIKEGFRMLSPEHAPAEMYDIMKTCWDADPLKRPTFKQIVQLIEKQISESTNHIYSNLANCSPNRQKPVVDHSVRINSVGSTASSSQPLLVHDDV
Chain of GSK-3β (P49841 whole entry, species assumed): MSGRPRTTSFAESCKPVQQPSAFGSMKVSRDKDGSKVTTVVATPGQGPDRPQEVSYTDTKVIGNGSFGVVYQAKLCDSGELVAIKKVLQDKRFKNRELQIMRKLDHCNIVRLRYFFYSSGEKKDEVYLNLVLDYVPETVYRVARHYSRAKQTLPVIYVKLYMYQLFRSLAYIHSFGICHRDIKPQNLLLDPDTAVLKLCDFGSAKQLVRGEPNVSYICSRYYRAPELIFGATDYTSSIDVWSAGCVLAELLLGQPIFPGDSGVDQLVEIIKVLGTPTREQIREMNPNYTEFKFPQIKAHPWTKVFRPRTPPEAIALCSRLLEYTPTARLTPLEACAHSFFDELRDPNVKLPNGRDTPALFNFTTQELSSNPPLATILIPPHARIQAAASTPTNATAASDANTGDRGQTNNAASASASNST

CDK1 (% inhibition) [1]: a (inhibition greater than 80%: a)
EGFR (% inhibition) [2]: b (inhibition between 80 and 50%: b)
GSK-3β (% inhibition) [3]: b (inhibition between 80 and 50%: b)
c-Kit (% inhibition) [4]: b (inhibition between 80 and 50%: b)
PDGFR (% inhibition) [5]: c (inhibition between 50 and 30%: c)
Abl (% inhibition) [6]: b (inhibition between 80 and 50%: b)
p56 Lck (% inhibition) [7]: b (inhibition between 80 and 50%: b)
SMILES: COc1ccccc1-c1cc(Nc2ccc(NC(=O)c3ccc(N4CCN(C)CC4)cc3)cc2)ncn1 [Compound 49]

CDK1 (% inhibition) [1]: a (inhibition greater than 80%: a)
EGFR (% inhibition) [2]: a (inhibition greater than 80%: a)
GSK-3β (% inhibition) [3]: c (inhibition between 50 and 30%: c)
c-Kit (% inhibition) [4]: b (inhibition between 80 and 50%: b)
PDGFR (% inhibition) [5]: b (inhibition between 80 and 50%: b)
Abl (% inhibition) [6]: b (inhibition between 80 and 50%: b)
p56 Lck (% inhibition) [7]: b (inhibition between 80 and 50%: b)
SMILES: CCN(CC)CCC(=O)Nc1ccc(Nc2cc(-c3ccccc3OC)ncn2)cc1 [Compound 64]

CDK1 (% inhibition) [1]: b (inhibition between 80 and 50%: b)
EGFR (% inhibition) [2]: a (inhibition greater than 80%: a)
c-Kit (% inhibition) [4]: b (inhibition between 80 and 50%: b)
PDGFR (% inhibition) [5]: b (inhibition between 80 and 50%: b)
Abl (% inhibition) [6]: b (inhibition between 80 and 50%: b)
p56 Lck (% inhibition) [7]: b (inhibition between 80 and 50%: b)
SMILES: COc1ccccc1-c1cc(Nc2ccc(NC(=O)C3(N)CCCCC3)cc2)ncn1 [Compound 66]

CDK1 (% inhibition) [1]: b (inhibition between 80 and 50%: b)
EGFR (% inhibition) [2]: a (inhibition greater than 80%: a)
c-Kit (% inhibition) [4]: b (inhibition between 80 and 50%: b)
PDGFR (% inhibition) [5]: b (inhibition between 80 and 50%: b)
Abl (% inhibition) [6]: b (inhibition between 80 and 50%: b)
p56 Lck (% inhibition) [7]: b (inhibition between 80 and 50%: b)
SMILES: COc1ccccc1-c1cc(Nc2ccc(NC(=O)C3(N)CCCC3)cc2)ncn1 [Compound 68]

CDK1 (% inhibition) [1]: b (inhibition between 80 and 50%: b)
EGFR (% inhibition) [2]: a (inhibition greater than 80%: a)
c-Kit (% inhibition) [4]: b (inhibition between 80 and 50%: b)
PDGFR (% inhibition) [5]: b (inhibition between 80 and 50%: b)
Abl (% inhibition) [6]: b (inhibition between 80 and 50%: b)
p56 Lck (% inhibition) [7]: a (inhibition greater than 80%: a)
SMILES: COc1ccccc1-c1cc(Nc2ccc(NC(=O)[C@H]3CCCCN3)cc2)ncn1 [Compound 69]

IC50 [8]: 1 to 10 µM
SMILES: CCN(CC)CCNC(=O)c1ccc(Nc2cc(-c3ccccc3OC)ncn2)cc1 [Compound 217]

IC50 [8]: 1 to 10 µM
SMILES: N[C@@H]1CCCC[C@H]1NC(=O)c1ccc(Nc2cc(-c3ccccc3O)ncn2)cc1 [Compound 218]

IC50 [8]: 10 to 250 µM
SMILES: COc1ncccc1-c1cc(Nc2ccc(C(=O)N[C@@H]3CCCC[C@H]3N)cc2)ncn1 [Compound 219]

IC50 [8]: 1 to 10 µM
SMILES: CSc1ccncc1-c1cc(Nc2ccc(C(=O)N[C@@H]3CCCC[C@H]3N)cc2)ncn1 [Compound 224]

IC50 [8]: 1 to 10 µM
SMILES: CN(C)c1ccccc1-c1cc(Nc2ccc(C(=O)N[C@@H]3CCCC[C@H]3N)cc2)ncn1 [Compound 233]

IC50 [8]: 1 to 10 µM
SMILES: COc1ccccc1-c1cc(Nc2ccc(N3CCOCC3)cc2)ncn1 [Compound 280]

IC50 [8]: 1 to 10 µM
SMILES: O=C(O)Cc1ccc(Nc2cc(-c3ccccc3OCc3ccccc3)ncn2)cc1 [Compound 294]

IC50 [8]: 10 to 250 µM
SMILES: COc1ccccc1-c1cc(Nc2cccc(S(N)(=O)=O)c2)ncn1 [Compound 331]

IC50 [8]: 1 to 10 µM
SMILES: CNS(=O)(=O)c1ccc(Nc2cc(-c3ccccc3OC)ncn2)cc1 [Compound 341]

IC50 [8]: 10 to 250 µM
SMILES: COc1ccccc1-c1cc(Nc2ccc3c(c2)S(=O)(=O)C=C3)ncn1 [Compound 342]

IC50 [8]: 1 to 10 µM
SMILES: COc1cccc(F)c1-c1cc(Nc2cccc(S(C)(=O)=O)c2)ncn1 [Compound 346]

IC50 [8]: 1 to 10 µM
SMILES: COc1ccccc1-c1cc(Nc2ccc(CCO)cc2)ncn1 [Compound 351]

IC50 [8]: 1 to 10 µM
SMILES: COc1ccccc1-c1cc(Nc2ccc3cnn(C)c3c2)ncn1 [Compound 353]
